Results on eleven compounds are retold here after ChEMBL document CHEMBL3272193, “New synthetic calcium selective ionophores. Design, synthesis, and transport properties” (J Med Chem, 1978).

Assay type in all cases: physicochemical; call rule not given here
Data set [1] can be described thus: Induction of sodium transport in chloroform layer up to 7 to 11 hrs.
Data set [2] is described as follows: Induction of magnesium transport in chloroform layer up to 3 hrs.
Data set [3] can be described thus: Induction of calcium transport in chloroform layer up to 7 to 11 hrs in absence of picrate.
A short description of data set [4]: Induction of calcium transport in chloroform layer up to 7 to 11 hrs in presence of picrate.

Consider `O=C(COCCOCC(=O)NCCc1c[nH]c2ccccc12)NCCc1c[nH]c2ccccc12`, for which the Activity result in data set [1] was “Not Active”.
Still for that read-out and setting: for `O=C(COCCOCC(=O)NCCc1ccccc1)NCCc1ccccc1` the value was “Not Active”.
As to `CC(CC1CCCCC1)N(C)C(=O)COCC(=O)O` (centres undefined), the Activity entry is recorded as “Active” in data set [2], “Active” in data set [3], “Not Active” in data set [1] and “Active” in data set [4].
As for `O=C(O)COCC(=O)NC12CC3CC(CC(C3)C1)C2`, in data set [1], the Activity result is on record as “Not Active”.
On the same count and under the same terms, for `O=C(O)COCC(=O)NCCc1ccccc1` the value was “Not Active”.
For the compound `O=C(O)COCC(=O)N1CCC(C(c2ccccc2)c2ccccc2)CC1`, the Activity result in data set [2] is on record as “Active”; in data set [3], “Active”; in data set [1], “Not Active”; in data set [4], “Active”.
`O=C(COCCOCC(=O)N1c2ccccc2C=Cc2ccccc21)N1c2ccccc2C=Cc2ccccc21`: the Activity entry in data set [3] is reported as “Active”; in data set [1], “Not Active”; in data set [4], “Active”.
Take `COc1ccccc1CC(C)N(C)C(=O)COCCOCC(=O)N(C)C(C)Cc1ccccc1OC` (mixture of isomers): the Activity result in data set [2] is given as “Active”; in data set [3], “Active”; in data set [1], “Not Active”; in data set [4] it was “Active”.
With `O=C(COCCOCC(=O)NC12CC3CC(CC(C3)C1)C2)NC12CC3CC(CC(C3)C1)C2`, the Activity result in data set [1] is given as “Not Active”.
As for `CC(CC1CCCCC1)N(C)C(=O)COCCOCC(=O)N(C)C(C)CC1CCCCC1` (mixture of isomers), the Activity entry in data set [3] is recorded as “Active”; in data set [1] it was “Not Active”; in data set [4], “Active”.
Take `CN(CCc1ccccc1)C(=O)COCC(=O)O`: the Activity result in data set [1] is listed as “Not Active”.
